Measurements: ChEMBL document CHEMBL3407483, “Novel 3-nitrotriazole-based amides and carbinols as bifunctional antichagasic agents” (J Med Chem, 2015)
Activity calls are given as the source filed them. The calls are words filed in the database; no cut-off is given here.

System: Trypanosoma brucei brucei
Experiment: Antitrypanosomal activity against bloodstream form of Trypanosoma brucei brucei
Assay type: functional, organism-based
Settings: not given

SMILES	IC50
N#Cc1ccc(-c2ccc(NC(=O)Cn3cnc([N+](=O)[O-])n3)cc2)cc1	0.84 µM

System: Trypanosoma cruzi
Experiment: Antichagasic activity against trypomastigote stage of Trypanosoma cruzi Brazil infected in Balb/c mouse assessed as reduction of parasite index at 13 mg/kg/day, ip measured after 10 days by luciferase reporter gene assay relative to control
Assay type: functional
Set-up: scale not given: the % may be the effect or the level left
Settings: route intraperitoneal

SMILES	Activity
O=C(Cn1cnc([N+](=O)[O-])n1)Nc1ccc(-c2ccc(Cl)cc2)cc1	<4%

System: Trypanosoma brucei brucei
Experiment: Selectivity ratio of IC50 for bloodstream form of Trypanosoma brucei brucei to IC50 for bloodstream form of Trypanosoma brucei brucei overexpressing type-1 nitroreductase
Assay type: functional
Settings: not given

SMILES	Ratio IC50
N#Cc1ccc(-c2ccc(NC(=O)Cn3cnc([N+](=O)[O-])n3)cc2)cc1	2

System: Trypanosoma brucei rhodesiense
Experiment: Antitrypanosomal activity against trypomastigote stage of Trypanosoma brucei rhodesiense STIB 900 assessed as parasite growth inhibition after 72 hrs by Alamar Blue assay
Assay type: functional, organism-based
Settings: STIB 900, 72 h

SMILES	IC50
Cc1ccc(S(=O)(=O)NC(Cc2ccccc2)Cn2cnc([N+](=O)[O-])n2)cc1 (configuration not stated)	11.6 µM
O=C(Cn1cnc([N+](=O)[O-])n1)c1ccc(-c2ccccc2)cc1	1.75 µM
O=C(Cn1cnc([N+](=O)[O-])n1)Nc1nc(-c2ccc(F)c(F)c2)cs1	16.1 µM
O=C(Cn1ccnc1[N+](=O)[O-])c1ccc(-c2ccccc2)cc1	76.5 µM
O=C(Cn1cnc([N+](=O)[O-])n1)Nc1nnc(-c2ccc(Cl)cc2)s1	73.9 µM
O=C(Cn1cncn1)c1ccc(-c2ccccc2)cc1	51.7 µM
N#Cc1ccc(-c2ccc(NC(=O)Cn3cnc([N+](=O)[O-])n3)cc2)cc1	0.336 µM
O=[N+]([O-])c1ncn(CC(O)(Cn2cncn2)c2ccc(-c3ccccc3)cc2)n1 (configuration not stated)	2.88 µM
O=C(Cn1cnc([N+](=O)[O-])n1)Nc1ccc(N2CCCCC2)cc1	17 µM
O=C(Cn1cnc([N+](=O)[O-])n1)Nc1nc(-c2ccc(Cl)cc2)cs1	4.06 µM
O=C(Cn1cnc([N+](=O)[O-])n1)Nc1ccc(-c2ccc(Cl)cc2)cc1	0.901 µM

System: Trypanosoma cruzi
Experiment: Antichagasic activity against trypomastigote stage of Trypanosoma cruzi Brazil infected in Balb/c mouse assessed as reduction of parasite level at 15 mg/kg/day, ip measured after 5 days by luciferase reporter gene assay
Assay type: functional, organism-based
Settings: not given

SMILES	Activity
N#Cc1ccc(-c2ccc(NC(=O)Cn3cnc([N+](=O)[O-])n3)cc2)cc1	Active

System: Trypanosoma brucei brucei
Experiment: Antitrypanosomal activity against bloodstream form of Trypanosoma brucei brucei overexpressing type-1 nitroreductase
Assay type: functional, organism-based
Settings: not given

SMILES	IC50
N#Cc1ccc(-c2ccc(NC(=O)Cn3cnc([N+](=O)[O-])n3)cc2)cc1	0.36 µM

System: not listed separately
Experiment: Metabolic stability in mouse microsomes assessed as compound remaining at 1 uM after 60 mins by LC/MS/MS analysis in presence of NADPH
Assay type: ADME, Microsome
Settings: read-out: Stability

SMILES	remaining at 1 h, 1 µM
N#Cc1ccc(-c2ccc(NC(=O)Cn3cnc([N+](=O)[O-])n3)cc2)cc1	79.4%
O=[N+]([O-])c1ncn(CC(O)(Cn2cncn2)c2ccc(-c3ccccc3)cc2)n1 (configuration not stated)	77.6%

System: Trypanosoma cruzi
Experiment: Antichagasic activity against trypomastigote stage of Trypanosoma cruzi Brazil infected in Balb/c mouse assessed as reduction of parasite level at 13 mg/kg/day, ip measured after 5 days by luciferase reporter gene assay
Assay type: functional, organism-based
Settings: not given

SMILES	Activity
O=C(Cn1cnc([N+](=O)[O-])n1)Nc1ccc(-c2ccc(Cl)cc2)cc1	Active

System: not listed separately
Experiment: Metabolic stability in human microsomes assessed as compound remaining at 1 uM after 60 mins by LC/MS/MS analysis in presence of NADPH
Assay type: ADME, Microsome
Settings: read-out: Stability

SMILES	remaining at 1 h, 1 µM
N#Cc1ccc(-c2ccc(NC(=O)Cn3cnc([N+](=O)[O-])n3)cc2)cc1	96.8%
O=[N+]([O-])c1ncn(CC(O)(Cn2cncn2)c2ccc(-c3ccccc3)cc2)n1 (configuration not stated)	90.7%

System: Trypanosoma brucei
Experiment: Activity of his-tagged recombinant Trypanosoma brucei type-1 nitroreductase assessed as oxidized NADH level per mg of protein after 5 mins by absorption spectrum analysis
Settings: not given

SMILES	Activity
N#Cc1ccc(-c2ccc(NC(=O)Cn3cnc([N+](=O)[O-])n3)cc2)cc1	3170 nmol/min
O=[N+]([O-])c1ncn(CC(O)(Cn2cncn2)c2ccc(-c3ccccc3)cc2)n1 (configuration not stated)	2680 nmol/min

System: Trypanosoma cruzi
Experiment: Antichagasic activity against trypomastigote stage of Trypanosoma cruzi Brazil infected in Balb/c mouse assessed as reduction of parasite index at 15 mg/kg/day, ip measured after 10 days by luciferase reporter gene assay relative to control
Assay type: functional
Set-up: scale not given: the % may be the effect or the level left
Settings: route intraperitoneal

SMILES	Activity
N#Cc1ccc(-c2ccc(NC(=O)Cn3cnc([N+](=O)[O-])n3)cc2)cc1	<4%
O=[N+]([O-])c1ncn(CC(O)(Cn2cncn2)c2ccc(-c3ccccc3)cc2)n1 (configuration not stated)	<4%

System: Trypanosoma cruzi
Experiment: Antitrypanosomal activity against amastigote stage of Trypanosoma cruzi Tulahuen C4 infected in rat L6 cells assessed as parasite growth inhibition after 96 hrs by colorimetric analysis
Assay type: functional, organism-based
Settings: Tulahuen C4, L6, 96 h

SMILES	IC50
Cc1ccc(S(=O)(=O)NC(Cc2ccccc2)Cn2cnc([N+](=O)[O-])n2)cc1 (configuration not stated)	0.339 µM
O=C(Cn1cnc([N+](=O)[O-])n1)c1ccc(-c2ccccc2)cc1	0.188 µM
O=C(Cn1cnc([N+](=O)[O-])n1)Nc1nc(-c2ccc(F)c(F)c2)cs1	0.459 µM
O=C(Cn1ccnc1[N+](=O)[O-])c1ccc(-c2ccccc2)cc1	14.2 µM
O=C(Cn1cnc([N+](=O)[O-])n1)Nc1nnc(-c2ccc(Cl)cc2)s1	16.6 µM
O=C(Cn1cncn1)c1ccc(-c2ccccc2)cc1	22.8 µM
N#Cc1ccc(-c2ccc(NC(=O)Cn3cnc([N+](=O)[O-])n3)cc2)cc1	0.138 µM
O=[N+]([O-])c1ncn(CC(O)(Cn2cncn2)c2ccc(-c3ccccc3)cc2)n1 (configuration not stated)	0.033 µM
O=C(Cn1cnc([N+](=O)[O-])n1)Nc1ccc(N2CCCCC2)cc1	0.554 µM
O=C(Cn1cnc([N+](=O)[O-])n1)Nc1nc(-c2ccc(Cl)cc2)cs1	0.102 µM
O=C(Cn1cnc([N+](=O)[O-])n1)Nc1ccc(-c2ccc(Cl)cc2)cc1	0.045 µM

System: Trypanosoma cruzi
Experiment: Antichagasic activity against trypomastigote stage of Trypanosoma cruzi Brazil infected in Balb/c mouse assessed as parasite index at 15 mg/kg/day, ip measured after 5 days by luciferase reporter gene assay
Assay type: functional
Settings: route intraperitoneal

SMILES	Activity
O=[N+]([O-])c1ncn(CC(O)(Cn2cncn2)c2ccc(-c3ccccc3)cc2)n1 (configuration not stated)	42.04

Target: Sterol 14-alpha demethylase (Trypanosoma cruzi (strain CL Brener), UniProt Q7Z1V1)
Experiment: Binding affinity to recombinant full-length Trypanosoma cruzi CYP51 by UV-spectrophotometric analysis
Settings: read-out: Kd(app)

Sequence of Sterol 14-alpha demethylase (Q7Z1V1 whole entry): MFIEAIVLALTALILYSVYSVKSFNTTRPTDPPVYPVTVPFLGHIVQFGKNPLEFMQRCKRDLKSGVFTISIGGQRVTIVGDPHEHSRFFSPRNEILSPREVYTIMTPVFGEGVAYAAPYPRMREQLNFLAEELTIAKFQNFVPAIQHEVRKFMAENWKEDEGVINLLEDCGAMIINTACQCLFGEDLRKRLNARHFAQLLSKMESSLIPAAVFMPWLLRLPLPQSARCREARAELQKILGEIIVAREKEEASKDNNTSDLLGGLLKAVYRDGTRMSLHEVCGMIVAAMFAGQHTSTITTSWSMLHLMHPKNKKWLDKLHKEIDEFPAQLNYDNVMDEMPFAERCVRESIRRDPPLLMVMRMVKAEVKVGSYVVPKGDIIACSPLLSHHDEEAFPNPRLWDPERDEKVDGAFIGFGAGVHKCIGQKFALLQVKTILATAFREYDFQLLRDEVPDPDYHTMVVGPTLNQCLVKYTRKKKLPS

SMILES	Kd
O=[N+]([O-])c1ncn(CC(O)(Cn2cncn2)c2ccc(-c3ccccc3)cc2)n1 (configuration not stated)	0.023 µM

System: Mus musculus
Experiment: Toxicity in Balb/c mouse at 15 mg/kg/day, ip measured after 5 to 10 days
Assay type: organism-based
Set-up: route intraperitoneal
Settings: in vivo

SMILES	Activity
N#Cc1ccc(-c2ccc(NC(=O)Cn3cnc([N+](=O)[O-])n3)cc2)cc1	Non-toxic
O=[N+]([O-])c1ncn(CC(O)(Cn2cncn2)c2ccc(-c3ccccc3)cc2)n1 (configuration not stated)	Non-toxic

System: not listed separately
Experiment: Metabolic stability in human microsomes assessed as compound remaining at 1 uM after 60 mins by LC/MS/MS analysis in absence of NADPH
Assay type: ADME, Microsome
Settings: read-out: Stability

SMILES	remaining at 1 h, 1 µM
N#Cc1ccc(-c2ccc(NC(=O)Cn3cnc([N+](=O)[O-])n3)cc2)cc1	84.8%
O=[N+]([O-])c1ncn(CC(O)(Cn2cncn2)c2ccc(-c3ccccc3)cc2)n1 (configuration not stated)	106%

System: L6
Experiment: Cytotoxicity against rat L6 cells assessed as growth inhibition after 72 hrs by Alamar Blue assay
Assay type: cell-based
Settings: L6, 72 h

SMILES	IC50
Cc1ccc(S(=O)(=O)NC(Cc2ccccc2)Cn2cnc([N+](=O)[O-])n2)cc1 (configuration not stated)	145 µM
O=C(Cn1cnc([N+](=O)[O-])n1)c1ccc(-c2ccccc2)cc1	220 µM
O=C(Cn1cnc([N+](=O)[O-])n1)Nc1nc(-c2ccc(F)c(F)c2)cs1	88.1 µM
O=C(Cn1ccnc1[N+](=O)[O-])c1ccc(-c2ccccc2)cc1	9.7 µM
O=C(Cn1cnc([N+](=O)[O-])n1)Nc1nnc(-c2ccc(Cl)cc2)s1	> 274 µM
O=C(Cn1cncn1)c1ccc(-c2ccccc2)cc1	113 µM
N#Cc1ccc(-c2ccc(NC(=O)Cn3cnc([N+](=O)[O-])n3)cc2)cc1	165 µM
O=[N+]([O-])c1ncn(CC(O)(Cn2cncn2)c2ccc(-c3ccccc3)cc2)n1 (configuration not stated)	127 µM
O=C(Cn1cnc([N+](=O)[O-])n1)Nc1ccc(N2CCCCC2)cc1	103 µM
O=C(Cn1cnc([N+](=O)[O-])n1)Nc1nc(-c2ccc(Cl)cc2)cs1	98.8 µM
O=C(Cn1cnc([N+](=O)[O-])n1)Nc1ccc(-c2ccc(Cl)cc2)cc1	126 µM

System: Trypanosoma cruzi
Experiment: Activity of his-tagged recombinant Trypanosoma cruzi type-1 nitroreductase assessed as oxidized NADH level per mg of protein after 5 mins by absorption spectrum analysis
Settings: not given

SMILES	Activity
N#Cc1ccc(-c2ccc(NC(=O)Cn3cnc([N+](=O)[O-])n3)cc2)cc1	888 nmol/min
O=[N+]([O-])c1ncn(CC(O)(Cn2cncn2)c2ccc(-c3ccccc3)cc2)n1 (configuration not stated)	1160 nmol/min

System: Trypanosoma cruzi
Experiment: Potency index, ratio of benznidazole IC50 to compound IC50 for amastigote stage of Trypanosoma cruzi Tulahuen C4 infected in rat L6 cells
Assay type: functional
Settings: not given

SMILES	Ratio IC50
O=[N+]([O-])c1ncn(CC(O)(Cn2cncn2)c2ccc(-c3ccccc3)cc2)n1 (configuration not stated)	68
O=C(Cn1cnc([N+](=O)[O-])n1)Nc1ccc(-c2ccc(Cl)cc2)cc1	45

System: not listed separately
Experiment: Selectivity index, ratio of IC50 for rat L6 cells to IC50 for trypomastigote stage of Trypanosoma brucei rhodesiense STIB 900
Assay type: toxicity, cell-based
Settings: read-out: Ratio IC50

SMILES	selectivity ratio
O=C(Cn1cnc([N+](=O)[O-])n1)c1ccc(-c2ccccc2)cc1	125
N#Cc1ccc(-c2ccc(NC(=O)Cn3cnc([N+](=O)[O-])n3)cc2)cc1	490
O=[N+]([O-])c1ncn(CC(O)(Cn2cncn2)c2ccc(-c3ccccc3)cc2)n1 (configuration not stated)	44
O=C(Cn1cnc([N+](=O)[O-])n1)Nc1nc(-c2ccc(Cl)cc2)cs1	24
O=C(Cn1cnc([N+](=O)[O-])n1)Nc1ccc(-c2ccc(Cl)cc2)cc1	140

System: Mus musculus
Experiment: Toxicity in Balb/c mouse at 13 mg/kg/day, ip measured after 5 to 10 days
Assay type: organism-based
Set-up: route intraperitoneal
Settings: in vivo

SMILES	Activity
O=C(Cn1cnc([N+](=O)[O-])n1)Nc1ccc(-c2ccc(Cl)cc2)cc1	Non-toxic

System: not listed separately
Experiment: Selectivity index, ratio of IC50 for rat L6 cells to IC50 for amastigote stage of Trypanosoma cruzi Tulahuen C4 infected in rat L6 cells
Assay type: toxicity, cell-based
Settings: read-out: Ratio IC50

SMILES	selectivity ratio
Cc1ccc(S(=O)(=O)NC(Cc2ccccc2)Cn2cnc([N+](=O)[O-])n2)cc1 (configuration not stated)	428
O=C(Cn1cnc([N+](=O)[O-])n1)c1ccc(-c2ccccc2)cc1	1160
O=C(Cn1cnc([N+](=O)[O-])n1)Nc1nc(-c2ccc(F)c(F)c2)cs1	192
O=C(Cn1cnc([N+](=O)[O-])n1)Nc1nnc(-c2ccc(Cl)cc2)s1	> 16.5
O=C(Cn1cncn1)c1ccc(-c2ccccc2)cc1	4.9
N#Cc1ccc(-c2ccc(NC(=O)Cn3cnc([N+](=O)[O-])n3)cc2)cc1	1190
O=[N+]([O-])c1ncn(CC(O)(Cn2cncn2)c2ccc(-c3ccccc3)cc2)n1 (configuration not stated)	3810
O=C(Cn1cnc([N+](=O)[O-])n1)Nc1ccc(N2CCCCC2)cc1	186
O=C(Cn1cnc([N+](=O)[O-])n1)Nc1nc(-c2ccc(Cl)cc2)cs1	973
O=C(Cn1cnc([N+](=O)[O-])n1)Nc1ccc(-c2ccc(Cl)cc2)cc1	2800

System: not listed separately
Experiment: Metabolic stability in mouse microsomes assessed as compound remaining at 1 uM after 60 mins by LC/MS/MS analysis in absence of NADPH
Assay type: ADME, Microsome
Settings: read-out: Stability

SMILES	remaining at 1 h, 1 µM
N#Cc1ccc(-c2ccc(NC(=O)Cn3cnc([N+](=O)[O-])n3)cc2)cc1	110%
O=[N+]([O-])c1ncn(CC(O)(Cn2cncn2)c2ccc(-c3ccccc3)cc2)n1 (configuration not stated)	102%

System: not listed separately
Experiment: Apparent permeability across apical to basolateral side in human Caco2 cells at 10 uM after 2 hrs by LC/MS/MS analysis
Assay type: ADME, cell-based
Settings: caco-2, 2 h

SMILES	Papp
N#Cc1ccc(-c2ccc(NC(=O)Cn3cnc([N+](=O)[O-])n3)cc2)cc1	18.7 ×10⁻⁶ cm/s
O=[N+]([O-])c1ncn(CC(O)(Cn2cncn2)c2ccc(-c3ccccc3)cc2)n1 (configuration not stated)	16.5 ×10⁻⁶ cm/s
